Experimental data as given in US9994570B2, “Bridged diazepane orexin receptor antagonists” (MERCK SHARP & DOHME CORP., priority 2014, dated 2018).

How the values were obtained:
rat orexin-1 receptor = target: T1, rat orexin-1 receptor (Rattus norvegicus, UniProt P56718); assay: FLIPR Ca2+ flux assay, OX1R; type: cell-based; conditions: CHO cells expressing the rat orexin-1 receptor; agonist 70 pM Ala-6,12 orexin-A
T1 construct: expressed in transfected cells; host or cells: CHO cells (grown under G418 selection)
T1 sequence (P56718 1-416): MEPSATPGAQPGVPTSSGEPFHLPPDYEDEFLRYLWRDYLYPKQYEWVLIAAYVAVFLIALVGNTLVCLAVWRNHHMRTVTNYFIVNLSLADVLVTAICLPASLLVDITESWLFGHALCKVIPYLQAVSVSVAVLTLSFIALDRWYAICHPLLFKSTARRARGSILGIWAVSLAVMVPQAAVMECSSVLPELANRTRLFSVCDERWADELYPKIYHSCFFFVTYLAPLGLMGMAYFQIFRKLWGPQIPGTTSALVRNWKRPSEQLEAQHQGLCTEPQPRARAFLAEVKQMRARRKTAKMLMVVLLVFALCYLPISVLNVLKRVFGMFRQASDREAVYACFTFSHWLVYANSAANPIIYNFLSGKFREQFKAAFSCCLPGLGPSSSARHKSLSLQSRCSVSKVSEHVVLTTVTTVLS
Protocol: (§1) The utility of the compounds in accordance with the present invention as orexin receptor OX1R and/or OX2R antagonists may be readily determined without undue experimentation by methodology well known in the art, including the “FLIPR Ca^2+ Flux Assay” (Okumura et al., Biochem. Biophys. Res. Comm. 280:976-981, 2001). In a typical experiment the OX1 and OX2 receptor antagonistic activity of the compounds of the present invention was determined in accordance with the following experimental method. For intracellular calcium measurements, Chinese hamster ovary (CHO) cells expressing the rat orexin-1 receptor or the human orexin-2 receptor, are grown in Iscove's modified DMEM containing 2 mM L-glutamine, […], 1% hypoxanthine-thymidine supplement, 100 U/ml penicillin, 100 μg/ml streptomycin and 10% heat-inactivated fetal calf serum (FCS). The cells are seeded at 20,000 cells/well into Becton-Dickinson black 384-well clear bottom sterile plates coated with poly-D-lysine. All reagents were from GIBCO-Invitrogen Corp. The seeded plates are incubated overnight at 37° C. and 5% CO2. Ala-6,12 human orexin-A as the agonist is prepared as a 1 mM stock solution in 1% bovine serum albumin (BSA) and diluted in assay buffer (HBSS containing 20 mM HEPES, 0.1% BSA and 2.5 mM probenecid, pH7.4) for use in the assay at a final concentration of 70 pM. Test compounds are prepared as 10 mM stock solution in DMSO, then diluted in 384-well plates, first in DMSO, then assay buffer. On the day of the assay, cells are washed 3 times with 100 μl assay buffer and then incubated for 60 min (37° C., 5% CO2) in 60 μl assay buffer containing 1 μM Fluo-4AM ester, 0.02% pluronic acid, and 1% BSA. The dye loading solution is then aspirated and cells are washed 3 times with 100 μl assay buffer. 30 μl of that same buffer is left in each well. Within the Fluorescent Imaging Plate Reader (FLIPR, Molecular Devices), test compounds are added to the plate in a volume of 25 μl, incubated for 5 min and finally 25 μl of agonist is added. Fluorescence is measured for each well at 1 second intervals for 5 minutes and the height of each fluorescence peak is compared to the height of the fluorescence peak induced by 70 pM Ala-6,12 orexin-A with buffer in place of antagonist. For each antagonist, IC50 value (the concentration of compound needed to inhibit 50% of the agonist response) is determined. Alternatively, compound potency can be assessed by a radioligand binding assay (described in Bergman et. al. Bioorg. Med. Chem. Lett. 2008, 18, 1425-1430) in which the inhibition constant (Ki) is determined in membranes prepared from CHO cells expressing either the OX1 or OX2 receptor. The intrinsic orexin receptor antagonist activity of a compound which may be used in the present invention may be determined by these assays.

human orexin-2 receptor = target: T2, human orexin-2 receptor (Homo sapiens, UniProt O43614); assay: FLIPR Ca2+ flux assay, OX2R; type: cell-based; conditions: for IC50: CHO cells expressing the human orexin-2 receptor, agonist 70 pM Ala-6,12 orexin-A; for Fold Selective: OX1R FLIPR / OX2R FLIPR
T2 construct: expressed in transfected cells; host or cells: CHO cells (grown under G418 selection)
T2 sequence (O43614 1-444): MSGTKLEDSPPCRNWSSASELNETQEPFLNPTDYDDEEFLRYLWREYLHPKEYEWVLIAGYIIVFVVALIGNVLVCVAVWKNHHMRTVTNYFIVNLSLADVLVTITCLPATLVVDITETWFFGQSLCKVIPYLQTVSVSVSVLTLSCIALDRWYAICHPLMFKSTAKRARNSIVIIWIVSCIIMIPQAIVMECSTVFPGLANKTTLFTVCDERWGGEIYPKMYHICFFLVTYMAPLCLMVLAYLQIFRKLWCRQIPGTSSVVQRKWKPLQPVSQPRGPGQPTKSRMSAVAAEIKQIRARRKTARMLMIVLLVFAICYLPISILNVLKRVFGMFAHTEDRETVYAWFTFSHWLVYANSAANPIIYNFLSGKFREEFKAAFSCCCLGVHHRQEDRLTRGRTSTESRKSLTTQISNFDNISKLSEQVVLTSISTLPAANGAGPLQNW
Protocol: as §1

Compound | IC50 (rat orexin-1 receptor) [nM] | IC50 (human orexin-2 receptor) [nM] | Fold Selective (human orexin-2 receptor)
Cc1cc(C)nc(N2CC3CC2CN(C(=O)c2cccnc2OCC(F)(F)F)C3)n1 (stereo not drawn) [Example 22, 6-(4,6-dimethylpyrimidin-2-yl)-3-{[2-(2,2,2-trifluoroethoxy)pyridin-3-yl]carbonyl}-3,6-diazabicyclo[3.2.1]octane] | 1040 | 13 | 80
Cc1cc(C)nc(N2CC3CC2CN(C(=O)c2cccnc2-c2noc(C)n2)C3)n1 (stereo not drawn) [Example 23, 6-(4,6-dimethylpyrimidin-2-yl)-3-{[2-(5-methyl-1,2,4-oxadiazol-3-yl)pyridin-3-yl]carbonyl}-3,6-diazabicyclo[3.2.1]octane] | > 10000 | 103 | >97
Cc1cc(C)nc(N2CC3CC2CN(C(=O)c2cccc(F)c2C2CC2)C3)n1 (stereo not drawn) [Example 24, (2-cyclopropyl-3-fluorophenyl)(6-(4,6-dimethylpyrimidin-2-yl)-3,6-diazabicyclo[3.2.1]octan-3-yl)methanone] | 743 | 17 | 44
Cc1cc(C)nc(N2CC3CC2CN(C(=O)c2ccccc2CC(F)(F)F)C3)n1 (stereo not drawn) [Example 25, 6-(4,6-dimethylpyrimidin-2-yl)-3-{[2-(2,2,2-trifluoroethyl)phenyl]carbonyl}-3,6-diazabicyclo[3.2.1]octane] | 2020 | 17 | 119
Cc1cc(C)nc(N2CC3CC2CN(C(=O)c2ccccc2OCC(F)(F)F)C3)n1 (stereo not drawn) [Example 26, 6-(4,6-dimethylpyrimidin-2-yl)-3-{[2-(2,2,2-trifluoroethoxy)-phenyl]carbonyl}-3,6-diazabicyclo[3.2.1]octane] | 1140 | 10 | 114
CCCc1ccccc1C(=O)N1CC2CC(C1)N(c1nc(C)cc(C)n1)C2 (stereo not drawn) [Example 27, 6-(4,6-dimethylpyrimidin-2-yl)-3-[(2-propylphenyl)carbonyl]-3,6-diazabicyclo[3.2.1]octane] | 1180 | 14 | 84
Cc1cc(C)nc(N2CC3CC2CN(C(=O)c2ccccc2CS(C)(=O)=O)C3)n1 (stereo not drawn) [Example 28, 6-(4,6-dimethylpyrimidin-2-yl)-3-({2-[(methylsulfonyl)methyl]phenyl}carbonyl)-3,6-diazabicyclo[3.2.1]octane] | > 10000 | 47 | >213
Cc1cc(C)nc(N2CC3CC2CN(C(=O)c2ccccc2C2(C#N)CC2)C3)n1 (stereo not drawn) [Example 29, 1-(2-{[6-(4,6-dimethylpyrimidin-2-yl)-3,6-diazabicyclo[3.2.1]oct-3-yl]carbonyl}-phenyl)-cyclopropanecarbonitrile] | 1120 | 13 | 86
COc1ccc(C(=O)N2CC3CC(C2)N(c2nc(C)cc(C)n2)C3)c(-n2nccn2)n1 (stereo not drawn) [Example 30, 6-(4,6-dimethylpyrimidin-2-yl)-3-{[6-methoxy-2-(2H-1,2,3-triazol-2-yl)pyridin-3-yl]carbonyl}-3,6-diazabicyclo[3.2.1]octane] | > 10000 | 117 | >85
Cc1cc(C)nc(N2CC3CC2CN(C(=O)c2cccnc2-n2nccn2)C3)n1 (stereo not drawn) [Example 31, 6-(4,6-dimethylpyrimidin-2-yl)-3-{[2-(2H-1,2,3-triazol-2-yl)pyridin-3-yl]carbonyl}-3,6-diazabicyclo[3.2.1]octane] | > 10000 | 90 | >111
Cc1cc(C)nc(N2CC3CC2CN(C(=O)c2cccnc2CC(F)(F)F)C3)n1 (stereo not drawn) [Example 32, 6-(4,6-dimethylpyrimidin-2-yl)-3-{[2-(2,2,2-trifluoroethyl)pyridin-3-yl]carbonyl}-3,6-diazabicyclo[3.2.1]octane] | > 10000 | 58 | >172
COCCc1ccccc1C(=O)N1CC2CC(C1)N(c1nc(C)cc(C)n1)C2 (stereo not drawn) [Example 33, 6-(4,6-dimethylpyrimidin-2-yl)-3-{[2-(2-methoxyethyl)-phenyl]carbonyl}-3,6-diazabicyclo[3.2.1]octane] | 3990 | 44 | 91
Cc1cc(C)nc(N2CC3CC2CN(C(=O)c2ccccc2OC(F)F)C3)n1 (stereo not drawn) [Example 34, 3-{[2-(difluoromethoxy)phenyl]carbonyl}-6-(4,6-dimethylpyrimidin-2-yl)-3,6-diazabicyclo[3.2.1]octane] | 2680 | 24 | 112
Cc1cc(C)nc(N2CC3CC2CN(C(=O)c2cccnc2C2CC2)C3)n1 (stereo not drawn) [Example 35, 3-[(2-cyclopropylpyridin-3-yl)carbonyl]-6-(4,6-dimethylpyrimidin-2-yl)-3,6-diazabicyclo[3.2.1]octane] | > 10000 | 47 | >213
Cc1cc(C)nc(N2CC3CC2CN(C(=O)c2ccccc2CC(F)F)C3)n1 (stereo not drawn) [Example 36, 3-{[2-(2,2-difluoroethyl)phenyl]carbonyl}-6-(4,6-dimethylpyrimidin-2-yl)-3,6-diazabicyclo[3.2.1]octane] | 2090 | 15 | 139
Cc1cc(C)nc(N2CC3CC2CN(C(=O)c2ccccc2OCC(F)F)C3)n1 (stereo not drawn) [Example 37, 3-{[2-(2,2-difluoroethoxy)-phenyl]carbonyl}-6-(4,6-dimethylpyrimidin-2-yl)-3,6-diazabicyclo[3.2.1]octane] | 851 | 14 | 61
Cc1cc(C)nc(N2CC3CC2CN(C(=O)c2cccnc2OC2CCCC2)C3)n1 (stereo not drawn) [Example 38] | 1080 | 23 | 47
Cc1cc(C)nc(N2CC3CC2CN(C(=O)c2cccnc2OCC2CC2)C3)n1 (stereo not drawn) [Example 39, 3-{[2-(cyclopropyl-methoxy)pyridin-3-yl]carbonyl}-6-(4,6-dimethylpyrimidin-2-yl)-3,6-diazabicyclo-[3.2.1]octane] | 1370 | 13 | 106
Cc1cc(C)nc(N2CC3CC2CN(C(=O)c2cccnc2OCC(C)C)C3)n1 (stereo not drawn) [Example 40, 6-(4,6-dimethyl-pyrimidin-2-yl)-3-{[2-(2-methylpropoxy)pyridin-3-yl]carbonyl}-3,6-diazabicyclo[3.2.1]octane] | 648 | 16 | 41
Cc1cc(C)nc(N2CC3CC2CN(C(=O)c2cccnc2OCC2CC2(F)F)C3)n1 (stereo not drawn) [Example 41, 3-({2-[(2,2-difluorocyclopropyl)methoxy]pyridin-3-yl}carbonyl)-6-(4,6-dimethylpyrimidin-2-yl)-3,6-diazabicyclo[3.2.1]octane] | 584 | 12 | 49
